According to patent publication US20180186742A1, “PICOLINAMIDES AS FUNGICIDES” (Dow AgroSciences LLC, priority 2017, published 2018):
Like-named read-outs stand apart in the source and are kept apart here.

Key:
Type in all cases: in vivo
Puccinia triticina = assay: Wheat brown rust (PUCCRT), disease control on wheat seedlings; details: low volume application at 121.5 g/H
How it was run: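 Compounds in acetone, diluted with nine volumes of water containing 110 ppm Triton X-100, sprayed to run-off on first-leaf Yuma wheat seedlings; track-spray tests used EC formulations with 0.1% Trycol 5941. Puccinia triticina spores applied before or after treatment. Overnight dark dew room at 22° C, 100% humidity, then greenhouse at 24° C.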

Phakopsora pachyrhizi = assay: Asian soybean rust (PHAKPA), disease control on soybean seedlings; details: High volume application at 25 ppm
How it was run: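 Two-week-old Williams 82 soybean seedlings were sprayed to run-off with compound in acetone/water (1:9) containing 0.011% Tween 20. Inoculation was 3 days before (curative) or 1 day after (protectant) treatment, followed by 24 h dark dew at 22 °C, 100% RH, then 23 °C; disease severity scored on sprayed leaves.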

Alternaria solani = assay: Tomato early blight (ALTESO), disease control on tomato plants; details: 1DP test at 100 ppm, read-out: ALTESO disease control rating
Procedure: Technical grades of materials were dissolved in acetone, which were then mixed with nine volumes of water containing 110 ppm Triton X-100. The fungicide solutions were applied onto wheat seedlings using an automated booth sprayer to run-off. All sprayed plants were allowed to air dry prior to further handling. All fungicides were evaluated using the aforementioned method for their activity vs. all target diseases, unless stated otherwise. Wheat leaf blotch and brown rust activity were also evaluated using track spray applications, in which case the fungicides were formulated as EC formulations, containing 0.1% Trycol 5941 in the spray solutions. Tomato plants (variety Outdoor Girl) were propagated in soil-less Metro mix, with each pot having one plant, and used when 12 to 14 days old. Test plants were inoculated with an aqueous spore suspension of Alternaria solani 24 hr after fungicide treatments. After inoculation the plants were kept in 100% relative humidity (one day in a dark dew chamber followed by two to three days in a lighted dew chamber at 20° C.) to permit spores to germinate and infect the leaf. The plants were then transferred to a growth room at 22° C. for disease to develop. Fungicide formulation, application and disease assessment on the sprayed leaves followed the procedures as described in the Example A.

Parastagonospora nodorum = assay: Wheat glume blotch (LEPTNO), disease control on wheat seedlings; details: 1DP test at 100 ppm, read-out: LEPTNO disease control rating
Procedure: Technical grades of materials were dissolved in acetone, which were then mixed with nine volumes of water containing 110 ppm Triton X-100. The fungicide solutions were applied onto wheat seedlings using an automated booth sprayer to run-off. All sprayed plants were allowed to air dry prior to further handling. All fungicides were evaluated using the aforementioned method for their activity vs. all target diseases, unless stated otherwise. Wheat leaf blotch and brown rust activity were also evaluated using track spray applications, in which case the fungicides were formulated as EC formulations, containing 0.1% Trycol 5941 in the spray solutions. Wheat plants (variety Yuma) were grown from seed in a greenhouse in 50% mineral soil/50% soil-less Metro mix until the first leaf was fully emerged, with 7-10 seedlings per pot. These plants were inoculated with an aqueous spore suspension of Parastagonospora nodorum 24 hr after fungicide treatments. After inoculation the plants were kept in 100% relative humidity (one day in a dark dew chamber followed by two days in a lighted dew chamber at 20° C.) to permit spores to germinate and infect the leaf. The plants were then transferred to a greenhouse set at 20° C. for disease to develop. Fungicide formulation, application and disease assessment followed the procedures as described in the Example A.

[1] = test system: Pseudoperonospora cubensis; assay: Cucumber downy mildew (PSPECU), disease control on cucumber seedlings; details: 24 h, 1DP (1 Day Protectant) test at 100 ppm
Procedure: Technical grades of materials were dissolved in acetone, which were then mixed with nine volumes of water containing 110 ppm Triton X-100. The fungicide solutions were applied onto wheat seedlings using an automated booth sprayer to run-off. All sprayed plants were allowed to air dry prior to further handling. All fungicides were evaluated using the aforementioned method for their activity vs. all target diseases, unless stated otherwise. Wheat leaf blotch and brown rust activity were also evaluated using track spray applications, in which case the fungicides were formulated as EC formulations, containing 0.1% Trycol 5941 in the spray solutions. Cucumber seedlings (variety Bush Pickle) were grown in soil-less Metro mix, with one plant per pot, and used in the test when 12 to 14 days old. Plants were inoculated with a spore suspension 24 hr following fungicide treatments. Test plants were inoculated with an aqueous spore suspension of Pseudoperonospora cubensis 24 hr after fungicide treatments. After inoculation the plants were kept in a dew room at 22° C. with 100% relative humidity for 24 hr to permit spores to germinate and infect the leaf. The plants were then transferred to a greenhouse set at 20° C. until disease was fully expressed. Fungicide formulation, application and disease assessment on the sprayed leaves followed the procedures as described in the Example A.

Uncinula necator = assay: Grape powdery mildew (UNCINE), disease control on grape seedlings; details: Erysiphe necator, 24 h, 1DP (1 Day Protectant) test at 100 ppm
Procedure: Technical grades of materials were dissolved in acetone, which were then mixed with nine volumes of water containing 110 ppm Triton X-100. The fungicide solutions were applied onto wheat seedlings using an automated booth sprayer to run-off. All sprayed plants were allowed to air dry prior to further handling. All fungicides were evaluated using the aforementioned method for their activity vs. all target diseases, unless stated otherwise. Wheat leaf blotch and brown rust activity were also evaluated using track spray applications, in which case the fungicides were formulated as EC formulations, containing 0.1% Trycol 5941 in the spray solutions. Grape seedlings (variety Carignane) were grown in soil-less Metro mix, with one plant per pot, and used in the test when approximately 1 month old. Plants were inoculated 24 hr after fungicide treatment by shaking spores from infected leaves over test plants. Plants were maintained in a greenhouse set at 20° C. until disease was fully developed. Fungicide formulation, application and disease assessment on sprayed leaves followed the procedures as described in the Example A.

[2] = 24 h, 1 Day Protectant, read-out: PUCCRT disease control, 1DP, LV activity
[3] = 72 h, 3 Day Curative, read-out: PUCCRT disease control, 3DC, LV activity
[4] = 24 h, 1 Day Protectant, read-out: PHAKPA 1DP disease control rating
[5] = 72 h, 3 Day Curative, read-out: PHAKPA 3DC disease control rating

SMILES	pest or weed control at 121.5 g/ha (Puccinia triticina; [2])	pest or weed control at 121.5 g/ha (Puccinia triticina; [3])	pest or weed control at 25 ppm (Phakopsora pachyrhizi; [4])	pest or weed control at 25 ppm (Phakopsora pachyrhizi; [5])	pest or weed control at 100 ppm (Alternaria solani)	pest or weed control at 100 ppm (Parastagonospora nodorum)	pest or weed control at 100 ppm [1]	pest or weed control at 100 ppm (Uncinula necator)
COc1ccnc(C(=O)N[C@@H](C)C(=O)O[C@@H](C)[C@H](c2ccc(F)cc2C)C(C)C)c1OC(C)=O [Compound 186]	> 80%	> 80%	> 80%	> 80%	> 80%	> 80%	< 80%	> 80%
CCC(CC)[C@@H](c1ccc(F)cc1C)[C@H](C)OC(=O)[C@H](C)NC(=O)c1nccc(OC)c1OC(C)=O [Compound 187]	> 80%	< 80%	> 80%	< 80%	< 80%	< 80%	< 0%	> 80%
COc1ccnc(C(=O)N[C@@H](C)C(=O)O[C@@H](C)[C@H](c2ccc(F)cc2C)C(C)C)c1OC(=O)C(C)C [Compound 216]	> 80%	> 80%	> 80%	> 80%	< 80%	> 80%	< 80%	> 80%
COc1ccnc2c(=O)n([C@@H](C)C(=O)O[C@@H](C)[C@H](c3ccc(F)cc3C)C(C)C)c(=O)oc12 [Compound 217]	> 80%	> 80%	> 80%	> 80%	< 80%	> 80%	< 0%	> 80%
COc1cc[n+]([O-])c(C(=O)N[C@@H](C)C(=O)O[C@@H](C)[C@H](c2ccc(F)cc2C)C(C)C)c1O [Compound 218]	> 80%	< 80%	< 80%	< 80%	< 0%	> 80%	< 0%	> 80%
COc1ccnc(C(=S)N[C@@H](C)C(=O)O[C@@H](C)[C@H](c2ccc(F)cc2C)C(C)C)c1OC(C)=O [Compound 219]	> 80%	> 80%	> 80%	> 80%	< 80%	> 80%	< 80%	> 80%
COCCC(=O)Oc1c(OC)ccnc1C(=O)N[C@@H](C)C(=O)O[C@@H](C)[C@H](c1ccc(F)cc1C)C(C)C [Compound 220]	> 80%	> 80%	> 80%	> 80%	< 80%	> 80%	< 0%	> 80%
COc1ccnc(C(=O)N[C@@H](C)C(=O)O[C@@H](C)[C@H](c2ccc(F)cc2C)C(C)C)c1OC(=O)C1CCCC1 [Compound 354]	> 80%	< 80%	> 80%	> 80%	< 80%	> 80%	> 80%	> 80%
CCC(C)C(=O)Oc1c(OC)ccnc1C(=O)N[C@@H](C)C(=O)O[C@@H](C)[C@H](c1ccc(F)cc1C)C(C)C (some centres unmarked) [Compound 355]	> 80%	< 80%	> 80%	> 80%	> 80%	> 80%	< 80%	> 80%
COc1ccnc(C(=O)N[C@@H](C)C(=O)O[C@@H](C)[C@H](c2ccc(F)cc2C)C(C)C)c1OC(=O)CC(C)C [Compound 356]	> 80%	< 80%	> 80%	> 80%	> 80%	> 80%	< 80%	> 80%
CCC(=O)Oc1c(OC)ccnc1C(=O)N[C@@H](C)C(=O)O[C@@H](C)[C@H](c1ccc(F)cc1C)C(C)C [Compound 357]	> 80%	> 80%	> 80%	> 80%	< 80%	> 80%	< 80%	> 80%
COc1ccnc(C(=O)N[C@@H](C)C(=O)O[C@@H](C)[C@H](c2cccc(F)c2C)C(C)C)c1OC(C)=O [Compound 359]	> 80%	> 80%	> 80%	> 80%	< 80%	> 80%	< 80%	> 80%
COc1ccnc(C(=O)N[C@@H](C)C(=O)O[C@@H](C)[C@H](c2cccc(C)c2C)C(C)C)c1OC(C)=O [Compound 363]	> 80%	> 80%	> 80%	> 80%	< 0%	< 80%	< 0%	> 80%
CCOC(=O)Oc1c(OC)ccnc1C(=O)N(C(=O)OCC)[C@@H](C)C(=O)O[C@@H](C)[C@H](c1ccc(F)cc1C)C(C)C [Compound 371]			> 80%	> 80%	< 80%	> 80%	< 80%	> 80%
CCOC(=O)Oc1c(OC)ccnc1C(=O)N[C@@H](C)C(=O)O[C@@H](C)[C@H](c1ccc(F)cc1C)C(C)C [Compound 372]			> 80%	> 80%	> 80%	> 80%	> 80%	> 80%
